Data: patent US20080311076A1, “Morpholinylanilinoquinazoline Derivatives For Use As Antiviral Agents” (ARROW THERAPEUTICS LIMITED, priority 2004, published 2008)
pIC50: −log10 of the molar value.

These compounds were tested on HCV replicon cells Huh 9B (assay: HCV replicon assay (luciferase) in Huh 9B replicon cells). Settings: Hepatitis C virus; concentration reducing replicon level (luciferase activity) by 50% vs untreated cell control; 72 h incubation.
Type: cell-based
Procedure: HCV replicon cells Huh 9B (ReBlikon), containing the firefly luciferase—ubiquitin—neomycin phosphotransferase fusion protein and EMCV-IRES driven HCV polyprotein with cell culture adaptive mutations.
Cells were cultured at 37° C. in a 5% CO2 environment and split twice a week on seeding at 2×10E6 cells/flask on day 1 and 1×10E6 3 days later. Some 0.25 mg/ml G418 was added to the culture medium (125 ul per 25 ml) but not the assay medium.
The culture medium consisted of DMEM with […] glucose and glutamax (Gibco 61965-026) supplemented with 1× non-essential amino acids, penicillin (100 IU/ml)/streptomycin (100 μg/ml), FCS (10%, 50 ml) and 1 mg/ml G418 (Invitrogen cat no 10131-027) & 10% foetal calf serum.
A flask of cells was trypsinised and a cell count carried out. Cells were diluted to 100,000 cells/ml and 100 μl of this used to seed one opaque white 96-well plate (for the replicon assay) and one flat-bottomed clear plate (for the tox assay) for every seven compounds to be tested for IC50. Wells G12 and H12 were left empty in the clear plate as the blank. Plates were then incubated at 37° C. in a 5% CO2 environment for 24 h.
On the following day compound dilutions are made up in medium at twice their desired final concentration in a clear round bottomed plate. All dilutions have a final DMSO concentration of 1%.
Once the dilution plate had been made up, controls and compounds were transferred to the assay plate (containing the cells) at 100 μl/well in duplicate plates.
Exception: in the white (replicon) plate, no compound was added to wells A1 and A2 and 100 μl of 1% DMSO was added to these instead. In the clear (Tox) plate, wells E12 & F12 only contained the DMSO control. Plates were then incubated at 37° C. with 5% CO2 for 72 h.
At the end of the incubation time, the cells in the white plate were harvested by washing with 200 μl/well of warm (37° C.) PBS and lysed with 20 μl cell culture lysis buffer (Promega). After 5 min incubation @ RT, luciferin solution was added to the luciferase assay buffer (LARB at 200 μl per 10 ml LARB. The M injector of the microplate luminometer (Lmax, Molecular Devices) was primed with […] injections. Plate were inserted into the luminometer and 100 μl luciferase assay reagent was added by the injector on the luminometer. The signal was measured using a 1 second delay followed by a 4 second measurement programme. The IC50, the concentration of the drug required for reducing the replicon level by 50% in relation to the untreated cell control value, can be calculated from the plot of the percentage reduction of the luciferase activity vs. drug concentration.

| SMILES | pIC50 |
| --- | --- |
| c1csc(-c2ccc3ncnc(Nc4ccc(N5CCOCC5)cc4)c3c2)n1 [Example 18, (4-Morpholin-4-yl-phenyl)-(6-thiazol-2-yl-quinazolin-4-yl)-amine] | > 6.00 |
| CN(C)Cc1ccc(-c2ccc3ncnc(Nc4ccc(N5CCOCC5)cc4)c3c2)o1 [Example 13, [6-(5-Dimethylaminomethyl-furan-2-yl)-quinazolin-4-yl]-(4-morpholin-4-yl-phenyl)-amine] | > 5.30 |
| c1nc(Nc2ccc(N3CCOCC3)cc2)c2cc(-c3ccc(CN4CCOCC4)o3)ccc2n1 [Example 12, [6-(5-Morpholin-4-ylmethyl-furan-2-yl)-quinazolin-4-yl]-(4-morpholin-4-yl-phenyl)-amine] | > 6.00 |
| CS(=O)(=O)Nc1cccc(-c2ccc3ncnc(Nc4ccc(N5CCOCC5)cc4)c3c2)c1 [Example 38, N-{3-[4-(4-Morpholin-4-yl-phenylamino)-quinazolin-6-yl]-phenyl}-methanesulfonamide] | > 5.30 |
| O=C(Nc1ccc(-c2ccc3ncnc(Nc4ccc(N5CCOCC5)cc4)c3c2)cc1)OCc1ccccc1 [Example 34, {4-[4-(4-Morpholin-4-yl-phenylamino)-quinazolin-6-yl]-phenyl}-carbamic acid benzyl ester] | > 6.00 |
| COc1ccc(CNC(=O)c2ccc3ncnc(Nc4ccc(N5CCOCC5)cc4)c3c2)cc1 [Example 26, 4-(4-Morpholin-4-yl-phenylamino)-quinazoline-6-carboxylic acid 4-methoxy-benzylamide] | > 5.30 |
| Cc1cc(Nc2ncnc3ccc(-c4cccs4)cc23)ccc1N1CCOCC1 [Example 44, (3-Methyl-4-morpholin-4-yl-phenyl)-(6-thiophen-2-yl-quinazolin-4-yl)-amine] | > 6.00 |
| O=C(O)c1ccc(-c2ccc3ncnc(Nc4ccc(N5CCOCC5)cc4)c3c2)s1 [Example 21, 5-[4-(4-Morpholin-4-yl-phenylamino)-quinazolin-6-yl]-thiophene-2-carboxylic acid] | > 4.60 |
| Ic1ccc2ncnc(Nc3ccc(N4CCOCC4)cc3)c2c1 [Example 2, (6-Iodo-quinazolin-4-yl)-(4-morpholin-4-yl-phenyl)-amine] | > 6.00 |
| CN1CCN(Cc2ccc(-c3ccc4ncnc(Nc5ccc(N6CCOCC6)cc5)c4c3)o2)CC1 [Example 11, {6-[5-(4-Methyl-piperazin-1-ylmethyl)-furan-2-yl]-quinazolin-4-yl}-(4-morpholin-4-yl-phenyl)-amine] | > 5.30 |
| O=Cc1ccc(-c2ccc3ncnc(Nc4ccc(N5CCOCC5)cc4)c3c2)o1 [Example 7, 5-[4-(4-Morpholin 4-yl-phenylamino)-quinazolin-6-yl]-furan-2-carbaldehyde] | > 6.00 |
| COc1cc(Nc2ncnc3ccc(-c4cccs4)cc23)ccc1N1CCOCC1 [Example 42, (3-Methoxy-4-morpholin-4-yl-phenyl)-(6-thiophen-2-yl-quinazolin-4-yl)-amine] | > 6.00 |
| CC(C)(C)OC(=O)Nc1ccc(-c2ccc3ncnc(Nc4ccc(N5CCOCC5)cc4)c3c2)cc1 [Example 36, {4-[4-(4-Morpholin-4-yl-phenylamino)-quinazolin-6-yl]-phenyl}-carbamic acid tert-butyl ester] | > 6.00 |
| N#Cc1ccc(-c2ccc3ncnc(Nc4ccc(N5CCOCC5)cc4)c3c2)cc1 [Example 24, 4-[4-(4-Morpholin-4-yl-phenylamino)-quinazolin-6-yl]-benzonitrile] | > 5.30 |
| c1nc(Nc2ccc(N3CCOCC3)cc2)c2cc(-c3ccc(C4OCCO4)o3)ccc2n1 [Example 6, [6-(5-[1,3]Dioxolan-2-yl-furan-2-yl)quinazolin-4-yl]-(4-morpholin-4-yl-phenyl)-amine] | > 5.30 |
| CCN(c1ccc(N2CCOCC2)cc1)c1ncnc2ccc(-c3cccs3)cc12 [Example 45, Ethyl-(4-morpholin-4-yl-phenyl)-(6-thiophen-2-yl-quinazolin-4-yl)-amine] | > 5.30 |
| CS(=O)(=O)c1ccc(-c2ccc3ncnc(Nc4ccc(N5CCOCC5)cc4)c3c2)cc1 [Example 22, [6-(4-Methanesulfonyl-phenyl)-quinazolin-4-yl]-(4-morpholin-4-yl-phenyl)-amine] | > 6.00 |
| COc1cc(Nc2ncnc3ccc(I)cc23)ccc1N1CCOCC1 [Example 41, (6-Iodo-quinazolin-4-yl)-(3-methoxy-4-morpholin-4-yl-phenyl)-amine] | > 5.30 |

| SMILES | pIC50 |
| --- | --- |
| Brc1ccc2ncnc(Nc3ccc(N4CCOCC4)cc3)c2c1 [Example 1, (6-Bromo-quinazolin-4-yl)-(4-morpholin-4-yl-phenyl)-amine] | > 5.30 |
| c1ccc(COc2ccccc2-c2ccc3ncnc(Nc4ccc(N5CCOCC5)cc4)c3c2)cc1 [Example 50, [6-(2-Benzyloxy-phenyl)-quinazolin-4-yl]-(4-morpholin-4-yl-phenyl)-amine] | > 5.30 |
| CC(C)CCN(c1ccc(N2CCOCC2)cc1)c1ncnc2ccc(-c3cccs3)cc12 [Example 49, (3-Methyl-butyl)-(4-morpholin-4-yl-phenyl)-(6-thiophen-2-yl-quinazolin-4-yl)-amine] | > 5.30 |
| Cc1cc(N2CCOCC2)ccc1Nc1ncnc2ccc(-c3cccs3)cc12 [Example 43, (2-Methyl-4-morpholin-4-yl-phenyl)-(6-thiophen-2-yl-quinazolin-4-yl)-amine] | > 6.00 |
| c1coc(-c2ccc3ncnc(Nc4ccc(N5CCOCC5)cc4)c3c2)c1 [Example 5, (6-Furan-2-yl-quinazolin-4-yl)-(4-morpholin-4-yl-phenyl)-amine] | > 6.00 |
| CN(c1ccc(N2CCOCC2)cc1)c1ncnc2ccc(I)cc12 [Example 46, (6-Iodo-quinazolin-4-yl)-methyl-(4-morpholin-4-yl-phenyl)amine] | > 6.00 |
| CCNC(=O)c1ccc2ncnc(Nc3ccc(N4CCOCC4)cc3)c2c1 [Example 32, 4-(4-Morpholin-4-yl-phenylamino)-quinazoline-6-carboxylic acid ethylamide] | > 5.30 |
| c1ccc(COc2ccc(-c3ccc4ncnc(Nc5ccc(N6CCOCC6)cc5)c4c3)cc2)cc1 [Example 51, [6-(4-Benzyloxy-phenyl)-quinazolin-4-yl]-(4-morpholin-4-yl-phenyl)-amine] | > 5.30 |
| COc1cccc(CNC(=O)c2ccc3ncnc(Nc4ccc(N5CCOCC5)cc4)c3c2)c1 [Example 28, 4-(4-Morpholin-4-yl-phenylamino)-quinazoline-6-carboxylic acid 3-methoxy-benzylamide] | > 5.30 |
| CCOC(=O)c1cccc(NC(=O)c2ccc3ncnc(Nc4ccc(N5CCOCC5)cc4)c3c2)c1 [Example 27, 3-{[4-(4-Morpholin-4-yl-phenylamino)-quinazoline-6-carbonyl]-amino}-benzoic acid ethyl ester] | > 5.30 |
| Cc1ccccc1-c1ccc2ncnc(Nc3ccc(N4CCOCC4)cc3)c2c1 [Example 17, (4-Morpholin-4-yl-phenyl)-(6-o-tolyl-quinazolin-4-yl)-amine] | > 5.30 |
| Cc1csc(-c2ccc3ncnc(Nc4ccc(N5CCOCC5)cc4)c3c2)c1 [Example 20, [6-(4-Methyl-thiophen-2-yl)-quinazolin-4-yl]-(4-morpholin-4-yl-phenyl)-amine] | > 5.30 |
| CC(=O)Nc1ccc(-c2ccc3ncnc(Nc4ccc(N5CCOCC5)cc4)c3c2)cc1 [Example 35, N-{4-[4-(4-Morpholin 4-yl-phenylamino)-quinazolin-6-yl]-phenyl}-acetamide] | > 6.00 |
| CC(C)N(c1ccc(N2CCOCC2)cc1)c1ncnc2ccc(-c3cccs3)cc12 [Example 48, Isopropyl-(4-morpholin-4-yl-phenyl)-(6-thiophen-2-yl-quinazolin-4-yl)-amine] | > 5.30 |
| CN(C)C(=O)c1ccc2ncnc(Nc3ccc(N4CCOCC4)cc3)c2c1 [Example 31, 4-(4-Morpholin-4-yl-phenylamino)-quinazoline-6-carboxylic acid dimethylamide] | > 5.30 |
| O=C(Nc1ccc2ncnc(Nc3ccc(N4CCOCC4)cc3)c2c1)c1ccco1 [Example 25, Furan-2-carboxylic acid [4-(4-morpholin-4-yl-phenylamino)-quinazolin-6-yl]-amide] | > 4.60 |
| CS(=O)(=O)CCNCc1ccc(-c2ccc3ncnc(Nc4ccc(N5CCOCC5)cc4)c3c2)o1 [Example 9, (6-{5-[(2-Methanesulfonyl-ethylamino)-methyl]-furan-2-yl}-quinazolin-4-yl)-(4-morpholin-4-yl-phenyl)-amine] | > 6.00 |
